According to ChEMBL document CHEMBL1201862, “PubChem BioAssay data set” (2004):
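Test compounds were applied to cells in 96-well plates for 48 hours at 5 doses. GI50 is the concentration that inhibits growth by half.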 Activity calls are given as the source filed them. No stated cut-off is given here; in the data, active = GI50 up to about 1.1 µM and inactive = higher.

Experiments:
Assay in all cases: growth of human tumour cells (NCI), 48 h
A498 = tested on: A498
BT-549 = tested on: BT-549
CAKI-1 = tested on: CAKI-1
CCRF-CEM = tested on: CCRF-CEM
COLO 205 = tested on: COLO 205
DU-145 = tested on: DU-145
HCC 2998 = tested on: HCC 2998
HCT-116 = tested on: HCT-116
HCT-15 = tested on: HCT-15
HL-60 = tested on: HL-60
HOP-62 = tested on: HOP-62
HOP-92 = tested on: HOP-92
HT-29 = tested on: HT-29
Hs-578T = tested on: Hs-578T
IGROV-1 = tested on: IGROV-1
K562 = tested on: K562
KM12 = tested on: KM12
M14 = tested on: M14
MCF7 = tested on: MCF7
MDA-MB-231 = tested on: MDA-MB-231
MDA-MB-435 = tested on: MDA-MB-435
MDA-N = tested on: MDA-N
MOLT-4 = tested on: MOLT-4
Malme-3M = tested on: Malme-3M
NCI-H226 = tested on: NCI-H226
NCI-H23 = tested on: NCI-H23
NCI-H460 = tested on: NCI-H460
NCI-H522 = tested on: NCI-H522
NCI/ADR-RES = tested on: NCI/ADR-RES
OVCAR-3 = tested on: OVCAR-3
OVCAR-5 = tested on: OVCAR-5
OVCAR-8 = tested on: OVCAR-8
PC-3 = tested on: PC-3
RPMI-8226 = tested on: RPMI-8226
RXF 393 = tested on: RXF 393
SF-295 = tested on: SF-295
SK-MEL-28 = tested on: SK-MEL-28
SK-MEL-2 = tested on: SK-MEL-2
SK-MEL-5 = tested on: SK-MEL-5
SK-OV-3 = tested on: SK-OV-3
SN12C = tested on: SN12C
SNB-19 = tested on: SNB-19
SNB-75 = tested on: SNB-75
SR = tested on: SR
T47D = tested on: T47D
U-251 = tested on: U-251
UACC-62 = tested on: UACC-62
UO-31 = tested on: UO-31
786-0 = tested on: 786-0
A549 = tested on: A549
ACHN = tested on: ACHN
EKVX = tested on: EKVX
LOX IMVI = tested on: LOX IMVI
OVCAR-4 = tested on: OVCAR-4
SF-268 = tested on: SF-268
SF-539 = tested on: SF-539
SW-620 = tested on: SW-620
TK-10 = tested on: TK-10
UACC-257 = tested on: UACC-257

`Cc1ccc([N+](=O)[O-])cc1/N=N/C(=O)NNc1cc([N+](=O)[O-])ccc1C` was tested, and the GI50 (A498) was 21.4 µM (inactive), the GI50 (BT-549) was 22.5 µM (inactive) and the GI50 (CAKI-1) was 25.9 µM (inactive). The GI50 (CCRF-CEM) was 10 µM (inactive), the GI50 (COLO 205) was 33.1 µM (inactive) and the GI50 (DU-145) was 35.3 µM (inactive). For the same molecule, the GI50 (HCC 2998) was 23.3 µM (inactive), the GI50 (HCT-116) was 17.7 µM (inactive) and the GI50 (HCT-15) was 21.7 µM. The GI50 (HL-60) was 48.2 µM (inactive), the GI50 (HOP-62) was 26.4 µM (inactive) and the GI50 (HOP-92) was 70.8 µM (inactive). The GI50 (HT-29) was 21.9 µM (inactive), the GI50 (Hs-578T) was 26.4 µM (inactive) and the GI50 (IGROV-1) was > 10 µM (inactive). The GI50 (K562) was 19.7 µM (inactive), the GI50 (KM12) was 23.4 µM (inactive) and the GI50 (M14) was 18.9 µM (inactive). The GI50 (MCF7) was 26.4 µM (inactive), the GI50 (MDA-MB-231) was 15.5 µM (inactive) and the GI50 (MDA-MB-435) was 22.2 µM (inactive). The GI50 (MDA-N) was 26.6 µM (inactive), the GI50 (MOLT-4) was 9.29 µM (inactive) and the GI50 (Malme-3M) was 37.6 µM (inactive). The GI50 (NCI-H226) was > 10 µM (inactive), the GI50 (NCI-H23) was 48.9 µM (inactive) and the GI50 (NCI-H460) was > 10 µM (inactive). The GI50 (NCI-H522) was 15.8 µM (inactive), the GI50 (NCI/ADR-RES) was 27.9 µM (inactive) and the GI50 (OVCAR-3) was 18.1 µM (inactive). The GI50 (OVCAR-5) was 51.3 µM (inactive), the GI50 (OVCAR-8) was 27 µM (inactive) and the GI50 (PC-3) was 17.6 µM (inactive). The GI50 (RPMI-8226) was 30.4 µM (inactive), the GI50 (RXF 393) was 18.1 µM (inactive) and the GI50 (SF-295) was 17.9 µM (inactive). For the same molecule, the GI50 (SK-MEL-28) was 26.8 µM (inactive), the GI50 (SK-MEL-2) was 24 µM (inactive) and the GI50 (SK-MEL-5) was 17.8 µM (inactive). For the same molecule, the GI50 (SK-OV-3) was 11.1 µM (inactive), the GI50 (SN12C) was > 10 µM (inactive) and the GI50 (SNB-19) was 41.9 µM (inactive). For the same molecule, the GI50 (SNB-75) was 21.3 µM (inactive), the GI50 (SR) was 52.8 µM (inactive) and the GI50 (T47D) was 31.3 µM (inactive). The GI50 (U-251) was 32.9 µM (inactive), the GI50 (UACC-62) was 14.7 µM (inactive) and the GI50 (UO-31) was 23.6 µM (inactive).
In the case of `CC(C)(C)c1ccc(-c2nc3ccc(Cl)cc3c(=O)o2)cc1`, the GI50 (786-0) is reported as 36.6 µM (inactive), the GI50 (A498) is reported as 23.4 µM (inactive) and the GI50 (A549) is reported as 11.9 µM (inactive). For the same molecule, the GI50 (ACHN) was 14.1 µM (inactive), the GI50 (BT-549) was 21.2 µM (inactive) and the GI50 (CAKI-1) was 25.4 µM (inactive). The GI50 (CCRF-CEM) was 14.8 µM (inactive), the GI50 (COLO 205) was 17.7 µM (inactive) and the GI50 (DU-145) was 25.4 µM (inactive). For the same molecule, the GI50 (EKVX) was 20.6 µM (inactive), the GI50 (HCC 2998) was 12.8 µM (inactive) and the GI50 (HCT-116) was 15.6 µM (inactive). For the same molecule, the GI50 (HCT-15) was 13.9 µM, the GI50 (HL-60) was 19.4 µM (inactive) and the GI50 (HOP-62) was 20.9 µM (inactive). For the same molecule, the GI50 (HOP-92) was 11.9 µM (inactive), the GI50 (HT-29) was 23.1 µM (inactive) and the GI50 (Hs-578T) was 30.5 µM (inactive). For the same molecule, the GI50 (IGROV-1) was 18.2 µM (inactive), the GI50 (K562) was 15.8 µM (inactive) and the GI50 (KM12) was 5.12 µM (inactive). For the same molecule, the GI50 (LOX IMVI) was 15.4 µM (inactive), the GI50 (M14) was 17.9 µM (inactive) and the GI50 (MCF7) was 25 µM (inactive). For the same molecule, the GI50 (MDA-MB-231) was 0.324 µM (active), the GI50 (MDA-MB-435) was 24.1 µM (inactive) and the GI50 (MDA-N) was 25.2 µM (inactive). The GI50 (MOLT-4) was 16.9 µM (inactive), the GI50 (Malme-3M) was 16.6 µM (inactive) and the GI50 (NCI-H23) was 11.4 µM (inactive). The GI50 (NCI-H460) was 26.2 µM (inactive), the GI50 (NCI-H522) was 12.7 µM (inactive) and the GI50 (NCI/ADR-RES) was 22.7 µM (inactive). For the same molecule, the GI50 (OVCAR-3) was 7.78 µM (inactive), the GI50 (OVCAR-4) was 20.5 µM (inactive) and the GI50 (OVCAR-5) was 25.1 µM (inactive). For the same molecule, the GI50 (OVCAR-8) was 14.5 µM (inactive), the GI50 (PC-3) was 21.5 µM (inactive) and the GI50 (RPMI-8226) was 19.6 µM (inactive). The GI50 (RXF 393) was 39.1 µM (inactive), the GI50 (SF-268) was 22 µM (inactive) and the GI50 (SF-295) was 13 µM (inactive). The GI50 (SF-539) was 14.7 µM (inactive), the GI50 (SK-MEL-28) was 21.3 µM (inactive) and the GI50 (SK-MEL-2) was 18.5 µM (inactive). The GI50 (SK-MEL-5) was 12.8 µM (inactive), the GI50 (SK-OV-3) was 18.4 µM (inactive) and the GI50 (SN12C) was 27.1 µM (inactive). The GI50 (SNB-19) was 14.5 µM (inactive), the GI50 (SNB-75) was 26.8 µM (inactive) and the GI50 (SR) was 16.4 µM (inactive). The GI50 (SW-620) was 26.4 µM (inactive), the GI50 (T47D) was 20.5 µM (inactive) and the GI50 (TK-10) was 41.3 µM (inactive). For the same molecule, the GI50 (U-251) was 12.6 µM (inactive), the GI50 (UACC-257) was 31.2 µM (inactive) and the GI50 (UACC-62) was 18.8 µM (inactive). The GI50 (UO-31) was 21.2 µM (inactive).
`N#Cc1c(N)nc2[nH]nc(N)c2c1-c1ccccc1` was tested, and the GI50 (786-0) was 16.8 µM (inactive), the GI50 (A498) was 1.61 µM (inactive) and the GI50 (A549) was 6.58 µM (inactive). The GI50 (ACHN) was 4.63 µM (inactive), the GI50 (BT-549) was 7.43 µM (inactive) and the GI50 (CAKI-1) was 3.2 µM (inactive). The GI50 (CCRF-CEM) was 16.4 µM (inactive), the GI50 (COLO 205) was 5.65 µM (inactive) and the GI50 (DU-145) was 8.11 µM (inactive). For the same molecule, the GI50 (EKVX) was 7.74 µM (inactive), the GI50 (HCC 2998) was 16.5 µM (inactive) and the GI50 (HCT-116) was 7.29 µM (inactive). The GI50 (HCT-15) was 5.41 µM, the GI50 (HL-60) was 11.2 µM (inactive) and the GI50 (HOP-62) was 27.5 µM (inactive). For the same molecule, the GI50 (HOP-92) was 2.56 µM (inactive), the GI50 (HT-29) was 12.2 µM (inactive) and the GI50 (Hs-578T) was 5.3 µM (inactive). For the same molecule, the GI50 (IGROV-1) was 2.8 µM (inactive), the GI50 (K562) was > 41.8 µM (inactive) and the GI50 (KM12) was 6.4 µM (inactive). For the same molecule, the GI50 (LOX IMVI) was 3.89 µM (inactive), the GI50 (M14) was 7.03 µM (inactive) and the GI50 (MCF7) was 4.59 µM (inactive). The GI50 (MDA-MB-231) was 4.48 µM (inactive), the GI50 (MDA-MB-435) was 6.93 µM (inactive) and the GI50 (MDA-N) was 6.04 µM (inactive). For the same molecule, the GI50 (MOLT-4) was 4.04 µM (inactive), the GI50 (Malme-3M) was 4.73 µM (inactive) and the GI50 (NCI-H226) was 11.8 µM (inactive). For the same molecule, the GI50 (NCI-H23) was 6.49 µM (inactive), the GI50 (NCI-H460) was 4.28 µM (inactive) and the GI50 (NCI-H522) was 3.72 µM (inactive). For the same molecule, the GI50 (NCI/ADR-RES) was 15 µM (inactive), the GI50 (OVCAR-3) was 3.72 µM (inactive) and the GI50 (OVCAR-4) was 11.3 µM (inactive). The GI50 (OVCAR-5) was 14.9 µM (inactive), the GI50 (OVCAR-8) was 12.5 µM (inactive) and the GI50 (PC-3) was 5.13 µM (inactive). The GI50 (RPMI-8226) was > 24.3 µM (inactive), the GI50 (RXF 393) was 3.78 µM (inactive) and the GI50 (SF-268) was 10.2 µM (inactive). For the same molecule, the GI50 (SF-295) was 6.04 µM (inactive), the GI50 (SF-539) was 7.16 µM (inactive) and the GI50 (SK-MEL-28) was 14.2 µM (inactive). The GI50 (SK-MEL-2) was 3.4 µM (inactive), the GI50 (SK-MEL-5) was 8.24 µM (inactive) and the GI50 (SK-OV-3) was 4.02 µM (inactive). For the same molecule, the GI50 (SN12C) was 5.33 µM (inactive), the GI50 (SNB-19) was 16.1 µM (inactive) and the GI50 (SR) was > 20.4 µM (inactive). The GI50 (SW-620) was 26.9 µM (inactive), the GI50 (T47D) was 0.452 µM (active) and the GI50 (TK-10) was 5.6 µM (inactive). For the same molecule, the GI50 (U-251) was 21.2 µM (inactive), the GI50 (UACC-257) was 21.1 µM (inactive) and the GI50 (UACC-62) was 2.72 µM (inactive). For the same molecule, the GI50 (UO-31) was 3.56 µM (inactive).
